{"source": "patent US20100166660A1", "about": "“METHODS OF MODELING MIGRAINE PAIN AND IDENTIFYING CANDIDATE COMPOUNDS FOR THE TREATMENT OF MIGRAINE” (priority 2007, published 2010)", "format_in_all_cases": "in vivo, rat", "key": {"[1]": {"tested_on": "Male Sprague Dawley rats", "test": "Candidate compound effect on facial tactile hyperesthesia induced by dural inflammation (IM cocktail)", "description": "In another set of experiments, facial response thresholds of the rats to tactile stimuli were determined. Calibrated von Frey filaments were applied perpendicularly to the midline of the forehead within a 3 mm diameter area just above the plane of the eyes, for six to eight seconds, until the filaments buckled slightly. A positive response was indicated by a sharp withdrawal of the head, which sometimes included an attempt to grasp and/or bite the filament. Special care was taken when applying the filaments to the forehead in order to prevent a positive facial response due to dynamic force and/or deflection of the hairs. The 50% facial response threshold was determined by the non-parametric method of Dixon. […] This “up-down” method was repeated until three changes in behavior were determined. The pattern of positive and negative responses was tabulated.\nThe 50% facial response threshold was determined as (10^[Xf+kδ])/10,000, where Xf is the value of the last von Frey filament employed, k is the Dixon value for the positive/negative pattern, and δ is the mean (log) difference between stimuli. Only naïve animals with baselines of eight grams were used in the experiment. Eight grams was used as the maximal cut-off. […]"}, "[2]": {"tested_on": "Male Sprague Dawley rats", "test": "Candidate compound effect on tactile hyperesthesia of the hindpaw induced by dural inflammation (IM cocktail)", "description": "Paw withdrawal thresholds to tactile stimuli were determined in response to probing with calibrated von Frey filaments (Stoelting Co., #58011). The von Frey filaments were applied perpendicularly to the plantar surface of the hindpaw of the animal until it buckled slightly, and were held for three to six seconds. A positive response was indicated by a sharp withdrawal of the paw. The 50% paw withdrawal threshold was determined by the non-parametric method of Dixon (Dixon, Ann. Rev. Pharmacol. Toxicol. 20:441-462, 1980; also see, e.g., Chaplan et al., J. Neurosci. Meth. 53:55-63, 1994). […] This “up-down” method was repeated until three changes in behavior were determined. The pattern of positive and negative responses was tabulated.\nThe 50% paw withdrawal threshold was determined as (10^[Xf+kδ])/10,000, where Xf is the value of the last von Frey filament employed, k is the Dixon value for the positive/negative pattern, and δ is the mean (log) difference between stimuli. Only naïve animals with baselines of 11 to 15 grams were used in the experiment. Fifteen grams was used as the maximal cut-off. Five days post-migraine surgery, paw withdrawal thresholds were re-tested using the same habituation and von Frey procedure as stated above. Data were converted to percent “antiallodynia” by the following formula: percent antiallodynia=100×(test value−post-treatment baseline value)/(pretreatment baseline value−post-treatment baseline value).\nAfter establishing baseline paw withdrawal thresholds, individual animals were removed from the testing chamber, the cap of the migraine intracranial guide tube was removed, and animals received an injection of either an IM cocktail (1 mM histamine, 1 mM serotonin, 1 mM bradykinin, and 1 mM prostaglandin E2) or vehicle (i.e., control) at 10 μl volume via the intracranial guide tube over a five- to ten-second period. The IM cocktail was made fresh on the day of each experiment. The cap of the intracranial guide tube was replaced, individual animals were placed back into their corresponding testing chamber, and paw withdrawal thresholds were measured at one-hour intervals over a six-hour time course. […] Data were converted to percent “antiallodynia” by the following formula: percent antiallodynia=100×(test value−post-treatment baseline value)/(pretreatment baseline value−post-treatment baseline value).\nRats were anesthetized with ketamine/xylazine (80-100 mg/kg, intraperitoneal) for stereotaxic placement of bilateral cannulae in the RVM. […]"}, "[3]": {"tested_on": "rats", "test": "Oral administration of compounds in the migraine model of the invention (tactile allodynia)", "description": "Oral delivery was accomplished by using an 18-gauge gavage needle attached to a 1 cc syringe."}, "[4]": {"tested_on": "rats", "test": "Model for allodynia: continuous drug infusion, then paw withdrawal threshold with von Frey filaments", "conditions": "continuous infusion (sumatriptan: 24 hour infusion at 0.6 mg/k/day); Appendix A-5", "description": "We have developed a model to determine the propensity for a compound to induce allodynia upon administration. Briefly, rats are infused continuously with a drug for a specified period of time. After the time, rats are probe with von Frey filaments to determine the paw withdrawal threshold. The compound may be administered for more than 2, 3, 4, 5, 6, 7, 8, 9, 10, 11, 12, 13, 14, 15, 16, 17, 18, 19, 20, 21, 22, 23, or 24 hours."}, "[5]": {"tested_on": "Male Sprague Dawley rats", "test": "Dural stimulus-induced tactile hyperesthesia of the hindpaw (50% paw withdrawal threshold, von Frey filaments)", "conditions": "administered to the dura; results two hours after treatment; FIG. 4", "description": "Male Sprague Dawley rats were anesthetized using ketamine/xylazine (80-100 mg/kg, intraperitoneal). The top of the head was shaved using a rodent clipper (Oster Golden A5 w/size 50 blade), and the shaved area was cleaned with betadine and 70% ethanol. Animals were placed into a stereotaxic apparatus (Stoelting Co., #51600) and the body core temperatures of 37° C. were maintained using a heating pad placed below the animals. Within the shaved and cleaned area on the head, a 2 cm incision was made using a scalpel with a #10 blade, and any bleeding was cleaned using sterile cotton swabs. […]\nPaw withdrawal thresholds to tactile stimuli were determined in response to probing with calibrated von Frey filaments (Stoelting Co., #58011). […] The 50% paw withdrawal threshold was determined by the non-parametric method of Dixon (Dixon, Ann. Rev. Pharmacol. Toxicol. 20:441-462, 1980; also see, e.g., Chaplan et al., J. Neurosci. Meth. 53:55-63, 1994). […] This “up-down” method was repeated until three changes in behavior were determined. […]\nThe 50% paw withdrawal threshold was determined as (10^[Xf+kδ])/10,000, where Xf is the value of the last von Frey filament employed, k is the Dixon value for the positive/negative pattern, and δ is the mean (log) difference between stimuli. […]"}}}
{"smiles": "CCCCN1CCCCC1C(=O)Nc1c(C)cccc1C", "note": "(centres unmarked) [bupivacaine]", "values": [{"measurement": "facial response threshold versus rats with dural IM cocktail but no compound", "setting": "[1]; administration in the RVM thirty minutes after IM cocktail, FIGS. 7A-7B", "result": "increase in facial response threshold"}, {"measurement": "paw withdrawal threshold versus rats with dural IM cocktail but no compound", "setting": "[2]; administration in the RVM thirty minutes after IM cocktail, FIG. 9A", "result": "increase in paw withdrawal threshold"}, {"measurement": "paw withdrawal threshold versus rats with dural IM cocktail but no compound", "setting": "[2]; administration in the RVM two hours after IM cocktail, FIG. 9B", "result": "significant increase in test animal paw withdrawal threshold"}]}
{"smiles": "CN1CC=C(c2c[nH]c3ccc(NC(=N)c4cccs4)cc23)CC1", "note": "[cpd 1]", "values": [{"measurement": "attenuation of tactile allodynia in the migraine model", "setting": "[3]; after oral administration, Appendix A-4", "result": "attenuated tactile allodynia"}, {"measurement": "oral activity in the migraine model", "setting": "[3]; oral, Appendix A-3", "result": "orally active"}, {"measurement": "induction of tactile allodynia after continuous infusion", "setting": "[4]", "result": "do not induce tactile allodynia"}]}
{"smiles": "CNS(=O)(=O)Cc1ccc2[nH]cc(CCN(C)C)c2c1", "note": "[sumatriptan]", "values": [{"measurement": "facial response threshold versus rats with dural IM cocktail but no compound", "setting": "[1]; systemic administration thirty minutes after IM cocktail, FIGS. 6A-6B", "result": "increase in facial response threshold"}, {"measurement": "paw withdrawal threshold versus rats with dural IM cocktail but no compound", "setting": "[2]; 0.6 mg/kg s.c. ten minutes prior to IM cocktail, FIG. 8", "result": "increase in paw withdrawal threshold"}, {"measurement": "development of tactile hyperesthesia (paw withdrawal thresholds)", "setting": "[2]; sumatriptan succinate 1 mg/kg s.c. five minutes prior to dural IM cocktail, two hours after dural treatment, FIG. 10", "result": "prevent or ameliorate the development of tactile hyperesthesia"}, {"measurement": "induction of tactile allodynia after continuous infusion", "setting": "[4]", "result": "induces tactile allodynia"}]}
{"smiles": "N[C@@H](CCC(=O)N[C@@H](CSN=O)C(=O)NCC(=O)O)C(=O)O", "note": "[SNOG, s-nitrosylglutathione]", "values": [{"measurement": "tactile hyperesthesia of the hindpaw", "setting": "[5]", "result": "produced a tactile hyperesthesia effect similar to that induced by administration of the IM cocktail"}]}
